In assay [1] the test system is Moloney murine leukemia virus (MoLV). Kind of assay: in vitro XC plaque assay (inhibition of virus plaque growth in mouse SC-1 cells / rat XC cells). Conditions: SC1, concentration giving a 50% inhibition of virus plaque growth, compounds added 2 hours prior to virus, read-out: IC₅₀. The format is cell-based. How it is done: The ability of the furan ketone derivatives of this invention to act as anti-retroviral agents can be demonstrated by their ability to inhibit the growth and replication of murine leukemia virus, an oncogenic retrovirus, as determined by an in vitro XC plaque assay. This assay was performed according to the method of Rowe et al. (Virology, 1970, 42, 1136-39) as previously described by L. Hsu, et al. (J. Virological Methods, 1980, 1, 167-77) and T. L. Bowlin and M. R. Proffitt (J. Interferon Res., 1983, 3(1), 19-31). Mouse SC-1 cells (fibroblast) (10⁵) were seeded into each well of 6-well cluster plates (Costar #3506) in 4 ml Minimum Essential Medium (MEM) with 10% Fetal Calf Serum (FCS). Following an 18 hour incubation period (37°C), Moloney murine leukemia virus (MoLV) was applied at a predetermined titer to give optimal (i.e. countable) numbers of virus plaques. Compounds were added 2 hours prior to addition of the virus. Three days later the culture medium was removed, the SC-1 cell monolayers were exposed to UV irradiation (1800 ergs), and rat XC cells (10⁶) were seeded into each well in 4 ml MEM. Following an additional 3 day incubation (37°C), these cells were fixed with ethyl alcohol (95%) and stained with 0.3% crystal violet. Plaques were then counted under low magnification. The antiviral activities of various compounds of this invention are tabulated in Table I in terms of the IC₅₀, i,e, the concentration giving a 50% inhibition of virus plaque growth.

The test system of assay [2] is HIV1GB8 strain of HIV-1. The assay is described as follows: anti-HIV activity in T-cells (JM cells): syncytial cell count and p24 antigen after 4 days. The format is cell-based. Conditions: for SYNCYTIAL COUNT: untreated 29; for P24 ANTIGEN: untreated 801; for inhibition at 15 µg/mL / inhibition at 30 µg/mL: Human immunodeficiency virus 1, T-cell, 96 h, inhibition of syncytial count. How it is done:
To further confirm the antiretroviral activity of these compounds, methyl 5-tetradecyloxy-2-furyl ketone and methyl 5-tetradecylthiomethyl-2-furyl ketone were evaluated for activity against HIV. Following overnight pretreatment of T-cells (JM cells) with the HIV1GB8 strain of HIV-1, the test compounds were added to the cell cultures at concentrations of 15 and 30 µg/ml. After 4 days the number of synctial cells in the cell culture and the amount of p24 antigen, also a measure of viral replication, were determined.

Consider 16 compounds from patent publication EP0374886A2, “Antiretroviral furan ketones” (MERRELL DOW PHARMACEUTICALS INC., priority 1988, dated 1990).

In brackets after ≈: the same amount, converted by molar mass. Some results are limits rather than exact numbers.

A word on the inhibition: it is the share of the control response that was lost under treatment. Read a low inhibition as little suppression.

On to `CCCCCCCCCCCCCCOCc1ccc(C(C)=O)o1` [Methyl 5-tetradecyloxymethyl-2-furyl ketone], for which, in assay [1], the IC50 fell in the range of 1 to 10 µg/mL (≈ 2.97 to 29.7 µM).
The same measure, in the same setting: the same measure for `CCCCCCCCCCCCCCc1ccc(C(C)=O)o1` [Methyl 5-tetradecyl-2-furyl ketone]: 1 to 10 µg/mL (≈ 3.26 to 32.6 µM).
On to `CCCCCCCCCCCCCCOc1ccc(C(C)=O)o1` [Methyl 5-tetradecyloxy-2-furyl ketone], for which the IC50 in assay [1] came out at 4 µg/mL (≈ 12.4 µM). Moreover, in assay [2] (15 µg/ml), the “SYNCYTIAL COUNT” value amounted to 19, the “P24 ANTIGEN” value stood at 450 pg X 10³/ml and the inhibition at 15 µg/mL is 34%. In addition, in assay [2] (30 µg/ml), the “SYNCYTIAL COUNT” value is reported as 0 and the inhibition at 30 µg/mL stood at 100%.
Consider `CCCCCCCCCCCCCCOc1ccc(C(=O)CCCCCC)o1` [Hexyl 5-tetradecyloxy-2-furyl ketone], for which, in assay [1], the IC50 lay within 5 to 10 µg/mL (≈ 12.7 to 25.5 µM).
In the case of `CCCCCCCC/C=C\CCCCCCCCOc1ccc(C(C)=O)o1` [Methyl 5-(cis-9-octadecenyl)oxy-2-furyl ketone], the IC50 in assay [1] is < 1 µg/mL.
Still for that read-out and setting: for `CCCCCCCCCCCCCCSc1ccc(C(C)=O)o1` [Methyl 5-tetradecylthio-2-furyl ketone] the value was 1 to 10 µg/mL (≈ 2.95 to 29.5 µM); for `CC(=O)c1ccc(OCCC(C)CCCC(C)CCCC(C)C)o1` (centres unmarked) [Methyl 5-(3,7,11-trimethyldodecyloxy)-2-furyl ketone], < 1 µg/mL.
Regarding `CCCCCCCCCCCCCCSCc1ccc(C(C)=O)o1` [Methyl 5-tetradecylthiomethyl-2-furyl ketone], the IC50 in assay [1] stood at 1 µg/mL (≈ 2.84 µM). In assay [2] (15 µg/ml), the “SYNCYTIAL COUNT” value is recorded as 3, the “P24 ANTIGEN” value is on record as 152 pg X 10³/ml and testing at 15 µg/mL gave an inhibition of 90%. In assay [2] (30 µg/ml), the “SYNCYTIAL COUNT” value came to 0 and the inhibition at 30 µg/mL worked out at 100%.
In the case of `CCCCCCCCCCOc1ccc(C(C)=O)o1` [Methyl 5-decyloxy-2-furyl ketone], the IC50 in assay [1] is 1 to 10 µg/mL (≈ 3.75 to 37.5 µM).
Same read-out and setting: the same measure for `CCCCCCCCCCCCc1ccc(C(C)=O)o1` [Methyl 5-dodecyl-2-furyl ketone]: 5 to 10 µg/mL (≈ 18 to 35.9 µM).
Same read-out and setting: for `CCCCCCCCCCCCCCCCCCOc1ccc(C(C)=O)o1` [Methyl 5-octadecyloxy-2-furyl ketone] the value was > 10 µg/mL; for `CCCCCCCCCCCCCCCOc1ccc(C(C)=O)o1` [Methyl 5-pentadecyloxy-2-furyl ketone], 5 to 10 µg/mL (≈ 14.9 to 29.7 µM).
On the same count and under the same terms, for `CCCCCCCCCCCCCCOc1ccc(C(=O)C(C)(C)C)o1` [t-Butyl 5-tetradecyloxy-2-furyl ketone] the value was 5 to 10 µg/mL (≈ 13.7 to 27.4 µM).
In the case of `CCCCCCCCCCCCC(C)COc1ccc(C(C)=O)o1` (centres unmarked) [Methyl 5-(2-methyltetradecyloxy)-2-furyl ketone], the IC50 in assay [1] was 1 to 5 µg/mL (≈ 2.97 to 14.9 µM).
Still for that read-out and setting: for `CCCCCCCCCCCCCCCCOc1ccc(C(C)=O)o1` [Methyl 5-hexadecyloxy-2-furyl ketone] the value was 1 to 10 µg/mL (≈ 2.85 to 28.5 µM); for `CCCCCCCCCCCCOc1ccc(C(C)=O)o1` [Methyl 5-dodecyloxy-2-furyl ketone], 1 to 10 µg/mL (≈ 3.4 to 34 µM).
